Biological target: T1, Gst-APC-2 (685-754) (Homo sapiens, UniProt Q9UJX6)
T1 construct: immobilizing the Gst-APC-2 (685-754) peptide with Gst-beads; made in house; host or cells: E. coli BL-21 (DE3)
Assay: In vitro binding of SMIs, immobilized Gst-APC-2 pre-incubated with CFM
Settings: WB with anti HA-tag
Description: The CFM-4 and 5 were separately dissolved in DMSO to obtain a stock of 20-50 mM. For in vitro binding experiments we utilized affinity-purified Gst-APC-2 (685-754) and His-TAT-HA-tagged A-epitope (WT) peptide. Ten nanogram of the His-TAT-HA-tagged A-epitope (WT) peptide was first allowed to bind with Ni-NTA beads (ProBond, InVitrogen), and then the reaction was incubated with DMSO (control), 100 μM CFM-4, or 100 μM CFM-5 for 30 min at RT. The reactions were then subjected to three washes with the binding buffer, followed by incubation with 10 ng of affinity-purified Gst-APC-2 (685-754) peptide for 30 min at RT. The reactions were washed again for three times with PBS, eluted and analyzed on a SDS-PAGE followed by western blotting (WB) with anti-Gst antibodies. A similar strategy was performed by immobilizing the Gst-APC-2 (685-754) peptide with Gst-beads. The beads were washed, incubated with DMSO or the CFMs, and the reactions washed again. The reactions were then allowed to incubate with affinity purified A-epitope peptide, and the complexes analyzed by SDS-PAGE followed by WB with anti HA-tag antibodies.

T1 sequence (Q9UJX6 685-754): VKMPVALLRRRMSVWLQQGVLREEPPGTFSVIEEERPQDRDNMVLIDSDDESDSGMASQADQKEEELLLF

O=C1N(Cc2ccccc2Cl)c2ccccc2C12NN=C(c1ccccc1)S2 (stereo not shown) [CFM-4, 1-(2-chlorobenzyl)-5′-phenyl-3′H-spiro[indoline-3,2′-[1,3,4]thiadiazol]-2-one]
binding of immobilized Gst-APC-2 (685-754) with A-epitope peptide after pre-incubation with compound: failed to abolish its binding
